Measured values: paper PMC3260554 (Nature Neuroscience, 2010)
Read-outs that look alike come from different tables or passages of the source.

Columns and labels:
mice = assay: Acetic acid-induced writhing; format: in vivo, Swiss Webster mice
Fos protein = assay: Formalin-induced spinal cord Fos protein expression; format: in vivo, Sprague-Dawley rats
FAAH [1] = biological target: T1, FAAH (Mus musculus, UniProt O08914); format: in vivo, Swiss Webster mice
T1 sequence (O08914 1-579): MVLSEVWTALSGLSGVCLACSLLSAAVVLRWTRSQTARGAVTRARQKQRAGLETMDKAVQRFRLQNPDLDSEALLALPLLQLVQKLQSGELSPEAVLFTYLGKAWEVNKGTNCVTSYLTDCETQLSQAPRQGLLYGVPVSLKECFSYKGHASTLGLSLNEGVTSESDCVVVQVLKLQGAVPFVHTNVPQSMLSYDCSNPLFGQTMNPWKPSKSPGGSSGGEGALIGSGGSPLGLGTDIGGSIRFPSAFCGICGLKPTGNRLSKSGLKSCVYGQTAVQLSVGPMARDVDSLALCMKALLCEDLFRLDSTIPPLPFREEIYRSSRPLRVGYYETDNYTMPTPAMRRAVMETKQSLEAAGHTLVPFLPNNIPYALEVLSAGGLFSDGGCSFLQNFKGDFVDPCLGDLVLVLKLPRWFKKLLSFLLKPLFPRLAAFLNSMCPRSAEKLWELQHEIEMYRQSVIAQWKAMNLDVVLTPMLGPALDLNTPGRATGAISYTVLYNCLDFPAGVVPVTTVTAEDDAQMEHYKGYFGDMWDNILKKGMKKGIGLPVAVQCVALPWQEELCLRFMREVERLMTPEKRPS

[2] = Temporal tissue distribution of URB937 in liver, brain and serum; format: in vivo, Swiss Webster mice; details: 1 mg-kg^−1, i.p., mice
[3] = Drug distribution coefficient n-octanol / buffer pH 7.4; format: physicochemical; details: n-octanol / aqueous buffer pH 7.4, 25±1°C, mean±s.e.m, n = 3
[4] = system: human epithelial TC7 cells; assay: Permeability and efflux ratio through polarized TC7 monolayers; format: in vitro ADME; details: mean of 2 independent experiments
FAAH [5] = system: FAAH
[6] = ex vivo 1 h after injection, 1 mg-kg^−1 i.p., Swiss Webster mice, n = 3
[7] = s.c., mice, 1 h after injection

COc1ccc2c(c1)c(CC(=O)O)c(C)n2C(=O)c1ccc(Cl)cc1 [indomethacin]
Effect on acetic acid-induced writhing relative to URB937 (mice; 1 mg-kg^−1, s.c., 1 h before test): comparable in efficacy

Cc1c(C(=O)NN2CCCCC2)nn(-c2ccc(Cl)cc2Cl)c1-c1ccc(Cl)cc1 [rimonabant]
Effect on Fos levels when administered without URB937 (Fos protein; 2 mg-kg^−1, i.p., rats): did not significantly alter Fos levels
Effect of antagonist on URB937 suppression of Fos expression (Fos protein; rimonabant 2 mg-kg^−1, i.p., with URB937): prevented

COc1ccc(C(=O)c2c(C)n(CCN3CCOCC3)c3cc(I)ccc23)cc1 [AM630]
Effect of antagonist on the antinociceptive effect of URB937 (writhing) (mice; antagonist 1 mg-kg^−1, s.c., with URB937 1 mg-kg^−1 s.c.): ineffective

NC(=O)c1cccc(-c2cc(OC(=O)NC3CCCCC3)ccc2O)c1 [Compound 1b]
Time course of peripheral FAAH inhibition in vivo (FAAH [1]; Supplementary Figure 1): rapidly and lastingly
FAAH Inhibition in brain (FAAH [1]; [6]): −3.0 ± 8.0%
FAAH Inhibition in liver (FAAH [1]; [6]): 91.7 ± 0.7%
ED50 for FAAH inhibition in brain (FAAH [1]; [7]): 40 mg/kg
ED50 for FAAH inhibition in liver (FAAH [1]; [7]): 0.2 mg/kg
Distribution in blood and liver after systemic administration [2]: distributed rapidly in blood and liver
Presence in brain tissue after systemic administration [2]: undetectable
distribution coefficient, LogDoct,pH7.4 [3]: 3.03±0.01
% recovery A–B [4]: 83%
% recovery B-A [4]: 95%
permeability B-A [4]: 37.1 ×10⁻⁶ cm/s
Effect on brain FAAH activity (FAAH [5]; 25 mg-kg^−1, i.p.): no effect

NC(=O)c1cccc(-c2cccc(OC(=O)NC3CCCCC3)c2)c1 [Compound 1a, cyclohexylcarbamic acid 3′-carbamoylbiphenyl-3-yl ester, reference compound]
Effect on brain FAAH activity (FAAH [5]; in vivo, ip): markedly reduced
